Measurements as given in US20250388896A1, “COMPOSITION AND METHODS FOR TRANSGENE INSERTION” (ARTISAN DEVELOPMENT LABS, INC, priority 2022, published 2025).

How the values were obtained:
Assay type in all cases: cell-based, human
[1] = tested on: predicted off-target sites; assay: INDEL frequency at predicted off-target sites by targeted deep sequencing; settings: Jurkat cells
Text: Extracted genomic DNA was quantified using the NanoDrop (ThermoFisher Scientific). […] Amplification products were purified with Agencourt AMPure XP beads (Ramcon), using the sample to beads ratio of 1:1.8. The DNA was eluted from the beads with nuclease-free water and the size of the purified amplicons analyzed on a 2% agarose E-gel using the E-gel electrophoresis system (ThermoFisher Scientific). In the second PCR, unique pairs of Illumina-compatible indexes (Nextera XT Index Kit v2) were added to the amplicons using the KAPA HiFi HotStart Ready Mix (Roche). The amplified products were purified with Agencourt AMPure XP beads (Ramcon), using the sample to bead ratio of 1:1.8. […] Sizes of the purified DNA fragments were validated on a 2% agarose gel using the E-gel electrophoresis system (ThermoFisher Scientific), quantified using Qubit dsDNA HS Assay Kit (Thermo Fisher) and then pooled in equimolar concentrations. […] The final library was sequenced on Illumina MiSeq System using the MiSeq Reagent Kit v.2 (300 cycles, 2×250 bp, paired-end reads). […]
Initial quality assessment of the obtained reads was performed with FastQC36. […] For the ORF disruption analysis, CRISPRessoBatch command with the parameters --cleavage_offset 1 -coding_seq <EXON_SEQ> --quantification_window_size 0 --quantification_window_center 1 --expand_ambiguous_alignments was used. […]

[2] = tested on: eight different loci (PDCD1, TIM3, LAG3, TIGIT, CTLA4, PTPN6, PTPN11, CD247); assay: gNA screen and validation: INDEL and frameshift frequency at eight loci by amplicon sequencing; settings: Jurkat cells; gNAs adjacent to all YTTN PAM variants
Protocol: (§1) Ribonucleoprotein complexes (RNPs) were generated by incubating respective guide nucleic acids (gNAs) with MAD7 in the molar ratio of 3:2 gNA:MAD7 for 15 minutes at room temperature immediately before transfection. For Jurkat experiments, the RNP complexes were generated by mixing the respective gNA (150 pmol), MAD7 (100 pmol), and nuclease-free water, unless otherwise stated.
(§2) Lonza 4D Nucleofector with Shuttle unit (V4SC-2960 Nucleocuvette Strips) was used for transfection, following the manufacturer's instructions. […]
(§3) Extracted genomic DNA was quantified using the NanoDrop (ThermoFisher Scientific). […] The DNA was eluted from the beads with nuclease-free water and the size of the purified amplicons analyzed on a 2% agarose E-gel using the E-gel electrophoresis system (ThermoFisher Scientific). In the second PCR, unique pairs of Illumina-compatible indexes (Nextera XT Index Kit v2) were added to the amplicons using the KAPA HiFi HotStart Ready Mix (Roche). […] Sizes of the purified DNA fragments were validated on a 2% agarose gel using the E-gel electrophoresis system (ThermoFisher Scientific), quantified using Qubit dsDNA HS Assay Kit (Thermo Fisher) and then pooled in equimolar concentrations. […] The final library was sequenced on Illumina MiSeq System using the MiSeq Reagent Kit v.2 (300 cycles, 2×250 bp, paired-end reads). […]

PDCD1 protein = assay: PDCD1 knock-out: surface expression of PDCD1 protein by flow cytometry; settings: Jurkat cells
Protocol: Flow cytometric assessments were carried out on a CytoFLEX S instrument (Beckmen Coulter) using a 96-well plate format. Measurements of cell viability, PDCD1 expression, GFP expression, and CAR expression were performed on 10,000 or 20,000 single cell events in Jurkat or primary T-cells, respectively.
For detection of PDCD1 knock-out efficiency, approx. 250,000 Jurkat cells per sample were transferred onto 96-well V-bottom cell culture plates and assessed following a series of consecutive washing and staining steps. The first step included centrifuging the cells at 300 g for 5 minutes at 4° C. and discarding the supernatant. Afterwards, the cells were stained using 100 μL Cell Staining Buffer (Biolegend) with APC/Cyanine7 anti-human CD279 (PD-1) antibody (1:100; Biolegend) and incubated for 30 minutes at 4° C. in the dark. The cells were then centrifuged at 300 g for 5 minutes at 4° C. and the supernatant discarded. The next step included two repeats of centrifugation at 300 g for 5 minutes at 4° C., supernatant removal, and cell washing in 150 μL ice-cold Cell Staining Buffer (Biolegend). In the final step, the cells were re-suspended in 100 μL Cell Staining Buffer for the flow cytometry measurements (excitation: red laser; emission: […]).
High-efficiency gNAs identified in our initial analysis were validated by assaying INDEL frequency for the top three or five gNAs for each of the selected immunologically relevant genes (FIG. 14). […] Alternating grey and white zones on the plot represent groups of three to five high-efficiency gNAs per locus. […] Using the CRISPresso2 software, the degree of open reading frame (ORF) disruption for each of the validated gNAs was estimated (FIG. 14). In addition, for four high-efficiency gNAs targeting three different exons at the PDCD1 locus, surface expression of the PDCD1 protein was measured by flow cytometry 4, 7, and 11 days post-transfection (data not shown). […] Average fraction of INDELs leading to frameshifts (dashed line) is approx. 66%. Alternating grey and white zones on the plot represent groups of three to five high-efficiency gNAs per locus.

TIM3 = assay: gNA screen INDEL/frameshift frequency, TIM3; settings: Jurkat cells; CRISPResso2 ORF disruption analysis
Protocol: as §1, §2, §3

[3] = measured 4, 7 and 11 days post-transfection, day of value not stated

MAD7: type V-A Cas nuclease MAD7
INDEL frequency of MAD7 at predicted off-target sites ([1]; all assayed off-target sites, Pairwise T-test, P≥0.05): No significant INDEL frequency
editing by PAM motif [2]: demonstrated editing with all eight combinations of YTTN PAM

crPDCD1 3: high-efficiency gNA targeting the PDCD1 locus (guide CAGUGGCGAGAGAAGACCCCG; listed as RNA, further chemistry not given here)
surface expression of the PDCD1 protein (PDCD1 protein; [3]): 35%

crPDCD1 4: high-efficiency gNA targeting the PDCD1 locus (guide CUAGCGGAAUGGGCACCUCAU; listed as RNA, further chemistry not given here)
surface expression of the PDCD1 protein (PDCD1 protein; [3]): 85%

crPDCD1_2: gNA targeting the PDCD1 gene at the extracellular domain of the protein (guide UCUGCAGGGACAAUAGGAGCC; listed as RNA, further chemistry not given here)
surface expression of the PDCD1 protein (PDCD1 protein; 4 days post-transfection): 10%
surface expression of the PDCD1 protein (PDCD1 protein; day 11 post-transfection): remained at this level
off-target activity (INDEL formation) at predicted off-target sites ([1]; 25 predicted sites, up to four mismatches, crPDCD1_2_13 and crPDCD1_2_15 sites, insignificant vs MOCK (P≥0.05)): low-level off-target activity

crPDCD1_5: high-efficiency gNA targeting the PDCD1 locus (guide GUGCUAAACUGGUACCGCAUG; listed as RNA, further chemistry not given here)
surface expression of the PDCD1 protein (PDCD1 protein; [3]): 85%

crTIM3_1: validated gNA targeting TIM3 (guide CUUGUAAGUAGUAGCAGCAGC; listed as RNA, further chemistry not given here)
frameshifts frequency (fraction of frameshift to INDEL) (TIM3): 23%

crTIM3_3: validated gNA targeting TIM3 (guide UAAGUAGUAGCAGCAGCAGCA; listed as RNA, further chemistry not given here)
frameshifts frequency (fraction of frameshift to INDEL) (TIM3): 44%
